Experimental data published in paper PMC8379256, “A xanthene derivative, DS20060511, attenuates glucose intolerance by inducing skeletal muscle-specific GLUT4 translocation in mice” (Communications Biology, 2021).
Where “and” joins values, the source holds several entries; their conditions need not be identical. Identical values can stand only once.

Tested on: db/db mice
Assay: Repeated (28-day) DS20060511 treatment of db/db mice
Assay type: in vivo, mouse
Set-up: Blood glucose after refeeding AUC: unit not given here
Procedure: db/db mice were acclimatized to a 6 h restricted feeding pattern from 10 am to 4 pm prior to the start of the experiment. For 28 days from 6 weeks of age, the mice received oral administration of 10 mg kg^−^1 of DS20060511 or vehicle once a day, 15 min prior to their feeding. On day 1 and day 28, the blood glucose levels were measured between 10 am to 4 pm. Blood glucose levels were measured using Glutest Every in blood samples collected from the tail vein. Daily food intake was monitored throughout the study, and the body weight, blood glucose, and plasma insulin were measured on day 1 and day 28. The hemoglobin A1c (HbA1c) level was also measured with a HLC-723G8 Automated Glycohemoglobin Analyzer on day 1 and day 28 (Tosoh, Tokyo, Japan). The triceps surae muscle (skeletal muscle), heart, epididymal WAT, and liver were excised immediately after euthanasia, and the tissue weights were measured on day 29. The glycogen contents of the muscle, heart, and liver were measured as described previously,[52] with some modifications. In brief, each tissue sample (50–100 mg) was weighed and boiled in 0.75 mL of 8 M KOH. After cooling, 0.25 mL of 1 M Na2SO4, followed by 2 mL of 99.5% ethanol, was added to precipitate the glycogen. The samples were centrifuged and the glycogen precipitates were dissolved in distilled water. Glycogen was degraded to glucose by treatment with amyloglucosidase (Sigma–Aldrich) at 55 °C for 60 min, and the glucose concentration was determined with Glucose CII Test Wako (FUJIFILM Wako Pure Chemical).

[1] = db/db mice, 10 mg/kg, Day 1, individual animals, 10 mg/kg
[2] = db/db mice, 10 mg/kg, Day 28, individual animals, 10 mg/kg

`COc1ccc2c(C)c(C(=O)O)ccc2c1C1C2=C(CC(C)(C)CC2=O)OC2=C1C(=O)CC(C)(C)C2` [DS20060511] was tested, and the “visible sign of toxicity” value (28-day repeated-dose study in db/db mice) was “did not find any visible sign of toxicity”, the “Body weight (g) Day 1” value [1] was 25.2 g and 26.3 g and 27.7 g and 27.0 g and 28.4 g and the “Glucose (mg/dl) Day 1” value [1] was 122 mg/dL and 152 mg/dL and 138 mg/dL and 136 mg/dL and 89 mg/dL and 180 mg/dL. For the same molecule, the “Insulin (ng/ml) Day 1” value [1] was 2.27 ng/mL and 4.08 ng/mL and 4.23 ng/mL and 4.25 ng/mL and 2.30 ng/mL and 3.38 ng/mL, the “Body weight (g) Day 28” value [2] was 37.0 g and 39.8 g and 40.4 g and 39.6 g and 39.4 g and 41.1 g and the “Glucose (mg/dl) Day 28” value [2] was 167 mg/dL and 157 mg/dL and 194 mg/dL and 145 mg/dL and 132 mg/dL and 155 mg/dL. The “Insulin (ng/ml) Day 28” value [2] was 7.52 ng/mL and 5.68 ng/mL and 8.16 ng/mL and 6.98 ng/mL and 8.68 ng/mL and 6.72 ng/mL, the “Tissue weight (g) WAT” value (db/db mice, 10 mg/kg, WAT, individual animals) was 1.93 g and 2.01 g and 2.15 g and 1.84 g and 1.69 g and 2.14 g and the “Tissue weight (g) Heart” value (db/db mice, 10 mg/kg, heart, individual animals) was 0.11 g and 0.10 g. For the same molecule, the “Tissue weight (g) Liver” value (db/db mice, 10 mg/kg, liver, individual animals) was 1.31 g and 1.43 g and 1.57 g and 1.42 g and 1.77 g, the “Tissue weight (g) Muscle” value (db/db mice, 10 mg/kg, muscle, individual animals) was 0.17 g and 0.18 g and the “HbA1c (%) Afrer” value (db/db mice, DS20060511 10 mg/kg, after repeated treatment, individual animals, 10 mg/kg) was 3.6% and 3.4% and 3.3% and 3.8%. For the same molecule, the “HbA1c (%) Delta” value (db/db mice, DS20060511 10 mg/kg, change from pre to after, individual animals, 10 mg/kg) was 0.38% and 0.35% and 0.34% and 0.46% and 0.33% and 0.7%, the “HbA1c (%) Pre” value (db/db mice, DS20060511 10 mg/kg, pre treatment (baseline), individual animals, 10 mg/kg) was 3.2% and 3.3% and 3.1% and 2.9% and the “blood glucose levels (in words)” value (db/db mice, 10 mg kg−1 day−1, day 1 to day 28) was “decreased significantly”. For the same molecule, the “tissue weights of muscle, heart, WAT, liver; glycogen contents of muscle, heart, liver” value (db/db mice, 28-day treatment) was “no significant changes”, the “hemoglobin A1c (HbA1c) value (in words)” value (db/db mice, chronic treatment, 4 weeks) was “significantly reduced” and the “body weight, food intake, fasting blood glucose level, fasting plasma insulin levels” value (db/db mice, vs vehicle) was “no statistically significant differences”. The “Blood glucose after refeeding” value (db/db, 10 mg/kg, Day 1, 0 hr, individual animals, 10 mg/kg) was 91 mg/dL and 54 mg/dL and 72 mg/dL and 70 mg/dL and 85 mg/dL and 96 mg/dL, the “Blood glucose after refeeding” value (db/db, 10 mg/kg, Day 1, 0.5 hr, individual animals, 10 mg/kg) was 138 mg/dL and 112 mg/dL and 86 mg/dL and 108 mg/dL and 117 mg/dL and 130 mg/dL and the “Blood glucose after refeeding” value (db/db, 10 mg/kg, Day 1, 1 hr, individual animals, 10 mg/kg) was 162 mg/dL and 145 mg/dL and 120 mg/dL and 136 mg/dL and 126 mg/dL and 147 mg/dL. For the same molecule, the “Blood glucose after refeeding” value (db/db, 10 mg/kg, Day 1, 2 hr, individual animals, 10 mg/kg) was 220 mg/dL and 154 mg/dL and 182 mg/dL and 126 mg/dL and 135 mg/dL and 171 mg/dL, the “Blood glucose after refeeding” value (db/db, 10 mg/kg, Day 1, 4 hr, individual animals, 10 mg/kg) was 189 mg/dL and 177 mg/dL and 142 mg/dL and 139 mg/dL and 179 mg/dL and 259 mg/dL and the “Blood glucose after refeeding” value (db/db, 10 mg/kg, Day 1, 6 hr, individual animals, 10 mg/kg) was 261 mg/dL and 247 mg/dL and 262 mg/dL and 136 mg/dL and 157 mg/dL and 294 mg/dL. The “Blood glucose after refeeding” value (db/db, 10 mg/kg, Day 1, -0.25 hr, individual animals, 10 mg/kg) was 124 mg/dL and 77 mg/dL and 78 mg/dL and 106 mg/dL and 118 mg/dL, the “Blood glucose after refeeding AUC” value (db/db, 10 mg/kg, Day 1, individual animals, 10 mg/kg) was 1236.0 and 1043.0 and 1019.0 and 813.5 and 939.5 and 1321.3 and the “Blood glucose after refeeding” value (db/db, 10 mg/kg, Day 28, 0 hr, individual animals, 10 mg/kg) was 140 mg/dL and 130 mg/dL and 193 mg/dL and 159 mg/dL and 136 mg/dL. The “Blood glucose after refeeding” value (db/db, 10 mg/kg, Day 28, 0.5 hr, individual animals, 10 mg/kg) was 171 mg/dL and 147 mg/dL and 157 mg/dL and 168 mg/dL and 130 mg/dL and 217 mg/dL, the “Blood glucose after refeeding” value (db/db, 10 mg/kg, Day 28, 1 hr, individual animals, 10 mg/kg) was 187 mg/dL and 108 mg/dL and 139 mg/dL and 164 mg/dL and 142 mg/dL and 240 mg/dL and the “Blood glucose after refeeding” value (db/db, 10 mg/kg, Day 28, 2 hr, individual animals, 10 mg/kg) was 230 mg/dL and 128 mg/dL and 167 mg/dL and 182 mg/dL and 163 mg/dL and 274 mg/dL. The “Blood glucose after refeeding” value (db/db, 10 mg/kg, Day 28, 4 hr, individual animals, 10 mg/kg) was 256 mg/dL and 306 mg/dL and 290 mg/dL and 274 mg/dL and 297 mg/dL and 345 mg/dL.
